From patent publication US12158399B2, “CaMKK2 inhibitor compositions and methods of using the same” (Duke University, priority 2016, dated 2024)

Tests used:
[1] = tested on: bone marrow derived MDSC; assay: In vitro MDSC generation from bone marrow with H2O2 or antioxidants; type: cell-based, mouse; settings: added Day 0 and Day 3; 0.001 mM H2O2, 20 μM MitoTEMPO, 20 μM BHA
Source text: To further study how ROS regulates MDSC differentiation, low dose of H2O2 and two commonly used antioxidants, MitoTEMPO and Butylated hydroxyanisole (BHA), were separately added to the culture media during MDSC in vitro generation. At basal condition, KO marrow generated less M-MDSC cells while differentiated more into Ly6C−CD11c+I-A+ mature dendritic cells compared to WT ones. […] The higher level of ROS in CaMKK2 KO MDSCs limited M-MDSC accumulation by facilitating the myeloid cell differentiation.
Bone marrow cells were prepared as described before. Cells after RBC lysis were seeded to 6-well plates (Coring, NY, USA) at 1×10^6 per well in 5 ml DMEM (Gibco, MA, USA) supplied with 10% FBS, 2 mM L-glutamine, 1.5 g/L sodium bicarbonate, 10 mM HEPES, 1.0 mM sodium pyruvate (all from Gibco, MA, USA), 10% fetal bovine serum (Hyclone, MA, USA), 40 nM recombinant mouse GM-CSF and 40 nM recombinant mouse IL-6 (Biolegend, CA, USA), and with or without 50% E.G7 supernatant. The supernatant was half-changed on Day 3. The floating cells were collected on Day 5 and enriched by anti-mouse Gr-1 Microbeads (Miltenyi, Bergisch Gladbach, Germany). The cells with the purity >90% were used. In some experiments as indicated, the cells were stained with APC anti-mouse Gr-1, PE anti-mouse/human CD11b (Biolegend, CA, USA). Double positive cells were sorted with BD FACS Aria II cell sorter (BD, NJ, USA).
For MDSC and BMDC, only floating cells were collected. 1×10^6 cells were spun down in BD Falcon round-bottom polystyrene tubes (BD, NY, USA). The cell pellet was incubated with 50 μl PBS with 2% FBS with FITC anti-mouse CD11c, PE anti-mouse/human CD11b, PE-Cy7 anti-mouse Ly6G, APC anti-mouse F4/80, APC-Cy7 anti-mouse I-A (all from BioLegend, CA, USA), PerCP Cy5.5 anti-mouse Ly6C, and Fixable Viability Dye eFluor® 450 (eBioscience, CA, USA) at 4° C. for 15 min. Cells were washed once with 2 ml PBS with 2% FBS and fixed with 200 μl 1.5% PFA in 4° C. till analysis.

[2] = tested on: E0771 cells; assay: Orthotopic E0771 mammary tumor growth; type: in vivo, mouse; settings: orthotopic graft in syngeneic wildtype mice; STO-609 IP 3-times/week
Procedure: (§1) E0771, 4T1 and Met1 grafts: 200,000 of the indicated cells were grafted orthotopically into the mammary fat pad of mice. 4T1 and Met1 cells were grafted in 50% matrigel. Resulting tumors were assessed by direct caliper measurement. To get sizable tumors in Camkk2−/− mice for IHC and flow cytometry studies, a higher number of E0771 (4×10^5) where grafted. This information has been reported in the corresponding figures.
(§2) These drugs were administered intraperitoneally daily. […] GSK treatment was initiated at post-day 2.

[3] = tested on: E0771 tumors; assay: Flow cytometry of tumor-associated myeloid and lymphoid cells in E0771 tumors; type: in vivo, mouse; settings: STO-609 vs vehicle treated mice
Procedure: Tumors were removed from mice and minced with a surgical scalpel. Minced tissues were added to 5 ml HBSS containing Ca^2+ and Mg^2+ (ThermoFisher Scientific, MA, USA), and supplied with collagenase 2 mg/ml and DNase 0.1 mg/ml (Roche, Basel, Switzerland). Subsequently, they were transferred in gentleMACS C tubes, dissected with gentleMACS dissociator (Miltenyi, Bergisch Gladbach, Germany) and incubated for […] at 37° C. At the end of this incubation, tumors were dissected again with gentleMACS dissociator, and cell suspension passed through 70 μm-cell strainers (Coring, NY, USA), washed twice in PBS w/2% FBS and used for FACS analysis.
Staining of tumor-infiltrating E0771 tumors: 5×10^6 cells suspension from dissected tumors were surface stained with APC Cy7-CD3, PE-CD8, PE Cy7-CD4, APC PD-1 (all from BioLegend, CA, USA). Cells were incubated for 15 min at 4° C., washed with PBS-2% FCS. PerCP/Cy5.5 PD-1 antibody (BioLegend, CA, USA) was used for intracellular staining on fixed and permeabilized cells, according with manufacture's protocol (BioLegend). For myeloid cells staining, cells were incubated with PE anti-mouse/human CD11b, PE-Cy7 anti-mouse Ly6G, APC anti-mouse F4/80 (all from BioLegend), PerCpCy5.5 anti-mouse Ly6C, APC Cy7-I-A and Fixable Viability Dye eFluor 450 (eBioscience, CA, USA) at 4° C. for 15 min in dark. Subsequently, cells were washed with PBS w/2% FBS and analyzed by FACS. Bone marrow-derived macrophages (1×10^6) were stained with PE anti-mouse/human CD11b, APC anti-mouse F4/80 (BioLegend), APC Cy7-I-A and Fixable Viability Dye eFluor 450 (eBioscience). The stained cells were analyzed using a BD FACSCanto flow cytometer (BD, NJ, USA). Data is analyzed using FlowJo (TreeStar, OR, USA).

[4] = tested on: Met1 cells; assay: Orthotopic Met1 mammary tumor growth; type: in vivo, mouse; settings: syngeneic wildtype mice; IP 100 moles/Kg body weight 3-times/week
Procedure: as §1
(§3) […] […] GSK treatment was initiated at post-day 2.

[5] = tested on: E.G7 cells; assay: E.G7 lymphoma flank tumor growth under STO-609 treatment; type: in vivo, mouse; settings: C57BL/6 mice, peritoneal injection every 2-3 days, vs DMSO; p<0.001
Procedure: Flank Tumor Model 1×10^5 E.G7 cells were suspended in 100 μl PBS and implanted subcutaneously to the right side flank of the mice. Tumors were monitored using bioluminescence imaging each week. Tumor sizes were measured with calibrator every 3-4 days and calculated as: Length×Width×Width/2. In some experiments 5×10^5 cells were used as indicated. Mice were sacrificed when tumor reached 2 cm^3. ELISpot Analysis
STO-609 was purchased from TORIS Bioscience (Bristol, UK). The C57BL/6 mice were purchased from the Jackson Laboratory (CA, USA). The mice were inoculated with 5×10^5 E.G7 cells to the right flank subcutaneously on day 0. On day 7, the tumor growth was measured using bioluminescent imaging. All the mice with visible tumor under luciferin detection were randomized into STO-609 treatment group or DMSO control group. […] The tumor size was monitored using a calibrator every 3-4 days. The experiment was terminated when the tumor reached 2 cm^3.

[6] = tested on: E0771 cells; assay: E0771 tumor growth in CD8+ T-cell depleted Camkk2-/- mice; type: in vivo, mouse; settings: anti-CD8 treated Camkk2-/- mice, STO-609 vs vehicle
Procedure: as §1, §2
To deplete CD8+ cells, mice were injected intra-peritoneally with anti-mouse CD8 monoclonal antibody or its IgG control isotype (BioXCell, NH, USA) each at 200 μl at the concentration of 1 mg/ml 4 days and 1 day before tumor inoculation, and every 3 days after tumor cell injection. The effect of CD8 depletion was monitored by flow cytometry using 50 μl peripheral blood staining with APC anti-mouse CD8, APC-Cy7 anti-mouse CD45.2 (BioLegend) at the same time.

[7] = tested on: 4T1 cells; assay: Orthotopic 4T1 mammary tumor growth; type: in vivo, mouse; settings: syngeneic wildtype mice; IP 3-times/week
Procedure: as §1, §3

[8] = tested on: E.G7 tumor; assay: Flow cytometry of tumors and spleens of E.G7 tumor bearing mice; type: in vivo, mouse; settings: vs DMSO
Procedure: The removed tumors were further minced with a surgical scalpel. The tissue were added to 5 ml HBSS w/Ca^2+ and Mg^2+ (ThermoFisher Scientific, MA, USA) supplied with collagenase 2 mg/ml and DNase 0.1 mg/ml (Roche, Basel, Switzerland) in gentleMACS C tubes and dissecting with gentleMACS dissociator (Miltenyi, Bergisch Gladbach, Germany). The samples were incubated in 37° C. for 15 min and passed through the 70 μm cell strainers (Coring, NY, USA). Cells were washed twice in PBS w/2% FBS before staining.
For myeloid cells staining, 5×10^6 cells were incubated with FITC anti-mouse CD11c, PE anti-mouse/human CD11b, PE-Cy7 anti-mouse Ly6G, APC anti-mouse F4/80 (all from BioLegend, CA, USA), PerCpCy5.5 anti-mouse Ly6C, Fixable Viability Dye eFluor® 450 (eBioscience, CA, USA) at 4° C. for 15 min in dark and washed with PBS w/2% FBS. The stained cells were analyzed using a BD FACSCanto flow cytometer (BD, NJ, USA). Data is analyzed using FlowJo (TreeStar, OR, USA).

COc1ccc(O)c(C(C)(C)C)c1 [BHA, Butylated hydroxyanisole]
M-MDSC number / accumulation [1]: same phenomenon was also observed | differentiation towards Ly6C-IA+CD11c+ dendritic cells [1]: same phenomenon was also observed

CCCc1ccnc2[nH]cc(-c3ccc(C(=O)N[C@@H](CO)c4ccccc4)cc3)c12 [GSKi]
E0771 mammary tumor growth (tumor volume) [2]: inhibited

O=C(O)c1ccc2c3c1cccc3c(=O)n1c3ccccc3nc21 [STO-609]
CD4+ T cells in E0771 tumors [3]: promoting accumulation | CD8+ T cells in E0771 tumors [3]: promoting accumulation | MHCII I-A high macrophages in E0771 tumors [3]: promoting accumulation | NK-T cells in E0771 tumors [3]: promoting accumulation | Met1 mammary tumor growth (tumor volume) [4]: inhibited | lymphoma growth (E.G7 tumor size) [5]: significantly suppressed | E0771 tumor growth in CD8+ T-cell depleted CamKK2-/- mice [6]: without effect | 4T1 mammary tumor growth (tumor volume) [7]: inhibited | E0771 mammary tumor growth (tumor volume) [2]: antitumor activity | percentage of CD3 in the tumors ([8]; E.G7 tumors, p<0.05): significantly higher | percentage of M-MDSC in the spleens ([8]; Ly6C+ in CD11b+ population, p<0.001): much lower

OO [H2O2]
M-MDSC number / accumulation [1]: significantly decreased | differentiation towards Ly6C-IA+CD11c+ dendritic cells [1]: increased both the count and percentage

CC1(C)CC(NC(=O)C[P+](c2ccccc2)(c2ccccc2)c2ccccc2)CC(C)(C)N1[O] [MitoTEMPO]
M-MDSC number / accumulation [1]: significantly induced M-MDSC accumulation | differentiation towards Ly6C-IA+CD11c+ dendritic cells [1]: decreased the differentiation
